This note sets out measurements from US20220017566A1, “TERPINOID DERIVATIVES AND USES THEREOF” (SICHUAN HAISCO PHARMACEUTICAL CO., LTD., priority 2018, published 2022).

Read-outs that look alike come from different tables or passages of the source.

Data set [1] can be described thus: Metabolic stability in mouse liver microsomes. Format: in vitro ADME, CD-1 mouse. The following applies: CD-1. On the procedure: (§1) The metabolic stability of test compounds was examined in CD-1 mouse, Sprague Dawley rat, Beagle dog, cynomolgus monkey, and human liver microsomes. Test compound (final concentration 1 μM) was mixed with diluted liver microsomes from each of the 5 species and a small aliquot was taken at 0, 5, 10, 20, 30, and 60 minutes for LC/MS/MS analysis. Intrinsic clearance and half-life were calculated.

The nature of data set [2]: Metabolic stability in human liver microsomes. Type of data set: in vitro ADME. Here is the method: as §1
Data set [3] is described as follows: Metabolic stability in monkey liver microsomes. Type of data set: in vitro ADME, cynomolgus monkey. Here is the method: as §1
Data set [4] has as its target T1, CYP2D6 (Homo sapiens, UniProt P10635).
T1 construct: studied in liver microsomes of CD-1 mouse, Sprague Dawley rat, Beagle dog, cynomolgus monkey, and human; from tissue; host or cells: liver microsomes
The data set can be described thus: CYP450 enzyme inhibition in liver microsomes (cocktail probe incubation). Particulars: species not given, 0.05-50 μM tested. Format: in vitro ADME. Here is the method:
(§2) The inhibition potential of test compounds towards major drug metabolizing CYP450 enzymes was studied in liver microsomes of CD-1 mouse, Sprague Dawley rat, Beagle dog, cynomolgus monkey, and human. The inhibition of CYP1A2, CYP2C9, CYP2C19, CYP2D6, and CYP3A4 was assessed using CYP450 specific probe reactions in a cocktail incubation. Seven concentrations of test compounds (0.05, 0.15, 0.5, 1.5, 5, 15, and 50 μM) were evaluated. In addition, known inhibitors for each probe reaction were included as positive controls and incubated at a single concentration above their respective IC50.

Data set [5] deals with T2, CYP2C9 (Homo sapiens, UniProt P11712).
T2 construct: studied in liver microsomes of CD-1 mouse, Sprague Dawley rat, Beagle dog, cynomolgus monkey, and human; from tissue; host or cells: liver microsomes
T2 sequence (P11712 whole entry): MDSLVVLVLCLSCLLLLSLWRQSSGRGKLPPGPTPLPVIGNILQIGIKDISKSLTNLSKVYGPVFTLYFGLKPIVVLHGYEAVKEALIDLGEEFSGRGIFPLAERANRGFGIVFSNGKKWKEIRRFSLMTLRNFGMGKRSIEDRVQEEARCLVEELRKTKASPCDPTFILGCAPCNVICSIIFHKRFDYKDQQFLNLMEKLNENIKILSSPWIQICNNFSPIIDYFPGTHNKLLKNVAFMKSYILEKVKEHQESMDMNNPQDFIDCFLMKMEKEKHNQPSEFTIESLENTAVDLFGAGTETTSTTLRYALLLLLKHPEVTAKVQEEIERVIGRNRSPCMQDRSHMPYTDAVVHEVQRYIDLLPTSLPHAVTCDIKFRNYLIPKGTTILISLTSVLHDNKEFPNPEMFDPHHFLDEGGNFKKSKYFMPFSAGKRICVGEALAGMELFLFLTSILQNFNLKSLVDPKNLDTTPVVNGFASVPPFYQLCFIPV
Described as above. Format: in vitro ADME. Particulars: species not given, 0.05-50 μM tested. On the procedure:
as §2

Data set [6] has as its target T3, CYP2C19 (Homo sapiens, UniProt P33261).
T3 construct: studied in liver microsomes of CD-1 mouse, Sprague Dawley rat, Beagle dog, cynomolgus monkey, and human; from tissue; host or cells: liver microsomes
The data set is described as above. Format: in vitro ADME. Particulars: species not given, 0.05-50 μM tested. On the procedure:
as §2

Data set [7] addresses T4, CYP1A2 (Homo sapiens, UniProt P05177).
T4 construct: studied in liver microsomes of CD-1 mouse, Sprague Dawley rat, Beagle dog, cynomolgus monkey, and human; from tissue; host or cells: liver microsomes
T4 sequence (P05177 1-516): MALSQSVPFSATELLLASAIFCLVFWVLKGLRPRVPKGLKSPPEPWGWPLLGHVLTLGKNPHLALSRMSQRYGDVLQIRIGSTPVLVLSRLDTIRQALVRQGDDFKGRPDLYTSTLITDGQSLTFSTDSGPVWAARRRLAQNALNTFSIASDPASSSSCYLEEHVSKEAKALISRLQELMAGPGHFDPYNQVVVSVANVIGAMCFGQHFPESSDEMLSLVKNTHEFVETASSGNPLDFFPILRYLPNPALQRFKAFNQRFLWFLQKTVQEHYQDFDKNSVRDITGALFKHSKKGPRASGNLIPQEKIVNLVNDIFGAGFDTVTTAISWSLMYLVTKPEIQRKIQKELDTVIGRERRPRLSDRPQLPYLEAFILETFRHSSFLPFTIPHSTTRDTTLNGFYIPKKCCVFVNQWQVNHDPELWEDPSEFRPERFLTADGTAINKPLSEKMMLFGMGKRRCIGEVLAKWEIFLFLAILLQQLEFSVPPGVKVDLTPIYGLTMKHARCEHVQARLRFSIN
The description is as above. Format: in vitro ADME. Particulars: species not given, 0.05-50 μM tested. On the procedure:
as §2

The target of data set [8] is T5, CYP3A4 (Homo sapiens, UniProt P08684).
T5 construct: studied in liver microsomes of CD-1 mouse, Sprague Dawley rat, Beagle dog, cynomolgus monkey, and human; from tissue; host or cells: liver microsomes
T5 sequence (P08684 whole entry): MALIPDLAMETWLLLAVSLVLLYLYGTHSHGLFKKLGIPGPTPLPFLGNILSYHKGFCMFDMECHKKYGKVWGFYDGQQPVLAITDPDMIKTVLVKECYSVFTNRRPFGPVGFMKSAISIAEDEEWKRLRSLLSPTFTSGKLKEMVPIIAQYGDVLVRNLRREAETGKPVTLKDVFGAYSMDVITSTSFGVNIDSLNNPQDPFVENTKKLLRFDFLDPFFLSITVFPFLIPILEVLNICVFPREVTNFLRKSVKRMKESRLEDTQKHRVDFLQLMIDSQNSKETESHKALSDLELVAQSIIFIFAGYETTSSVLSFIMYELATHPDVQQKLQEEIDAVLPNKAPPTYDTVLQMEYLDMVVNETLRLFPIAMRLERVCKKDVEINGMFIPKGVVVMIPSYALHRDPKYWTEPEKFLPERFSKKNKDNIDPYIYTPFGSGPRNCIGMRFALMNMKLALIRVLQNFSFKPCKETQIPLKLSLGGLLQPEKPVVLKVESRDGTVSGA
The data set is described as above. Type of data set: in vitro ADME. The following applies: species not given, 0.05-50 μM tested. Here is the method:
as §2

Data set [9] deals with IFNγ-induced NO production in Raw 264.7 cells. The data set can be described thus: Nitric oxide assay: suppression of IFNγ-induced NO production (Griess nitrite, adjusted to live cell numbers). Type of data set: cell-based. Particulars: Mus musculus, RAW264.7, 2 h pretreatment, IFNγ 10 ng/ml for 24 hours. On the procedure:
Raw 264.7 cells were seeded in 96-well plates at a density of 30, 000 cells per well in DMEM+10% FBS and incubated overnight. The next day, cell media was replaced by DMEM+2% FBS. Cells were pretreated with DMSO or test compounds (top dose 100 nM, 1:4 serial dilution, 10-point) for 2 hours and then treated with recombinant mouse IFNγ (R&D, Cat# 485-MI-100) at a final concentration of 10 ng/ml for 24 hours. Nitrite levels were measured in culture media as a surrogate for nitric oxide using the Griess Reagent System (Promega, Cat# G2930). Cell viability was determined using CellTiter Glo reagents (Promega, Cat#G7572). The nitrite levels were adjusted to live cell numbers and inhibition percentage was calculated. The inhibition percentage was then plotted against compound concentration, and IC50 values were calculated using four-parameter algorithm in Graphpad Prism.

Data set [10] is described as follows: Metabolic stability in dog liver microsomes. Format: in vitro ADME. Particulars: Beagle. Here is the method: as §1
Data set [11] can be described thus: Metabolic stability in rat liver microsomes. Format: in vitro ADME. Particulars: Sprague Dawley. Here is the method:
as §1

Data set [12] has as its system NQO1. The data set can be described thus: NQO1 activity assay in Raw264.7 cell lysates. Type of data set: cell-based. Particulars: Mus musculus; Raw264.7 cells, 48 hours treatment. On the procedure:
Raw264.7 cells were seeded in DMEM+10% FBS in 96-well plates at a density of 10,000 cells per well. 6 hours after plating, cells were treated with DMSO or test compounds (top dose 100 nM, 1:4 serial dilution, 8-point) for 48 hours. NQO1 activity was then detected in cell lysates using NQO1 activity assay kit (Abeam, Cat#ab184867). NQO1 activity was then plotted against compound concentration, and EC50 values were calculated using four-parameter algorithm in Graphpad Prism.

Data set [13] is described as follows: Pharmacokinetic studies in Sprague Dawley rats (oral gavage and IV). Particulars: rat, male SD rats, plasma; for AUC(0-t): read-out: AUC0-24 h; for bioavailability: oral 5 mg/kg vs IV 1 mg/kg, read-out: Bioavailibility F %. Format: in vivo. On the procedure: The pharmacokinetics of test compounds was evaluated in male SD rats when administered via oral gavage and IV injection. For oral dosing, compound was formulated in 0.5% methylcellulose and administered at doses of 5 mg/kg (3 rats per dose level) and volume of 10 mL/kg. For IV dosing, compound was formulated in 5% DMSO/5% Solutol/90% saline and administered to 3 rats at a dose of 1 mg/kg and a volume of 5 mL/kg. The rats were fasted overnight before administration. Plasma samples were collected predose and at 0.5, 1, 3, 6, 9, 12, and 24 hours postdose. The samples were analyzed by LC/MS/MS and the concentration of test compound at each timepoint was determined by linear regression. Pharmacokinetic parameters were calculated from the plasma concentrations using Pheonix WinNonlin.

T1 sequence (P10635 whole entry): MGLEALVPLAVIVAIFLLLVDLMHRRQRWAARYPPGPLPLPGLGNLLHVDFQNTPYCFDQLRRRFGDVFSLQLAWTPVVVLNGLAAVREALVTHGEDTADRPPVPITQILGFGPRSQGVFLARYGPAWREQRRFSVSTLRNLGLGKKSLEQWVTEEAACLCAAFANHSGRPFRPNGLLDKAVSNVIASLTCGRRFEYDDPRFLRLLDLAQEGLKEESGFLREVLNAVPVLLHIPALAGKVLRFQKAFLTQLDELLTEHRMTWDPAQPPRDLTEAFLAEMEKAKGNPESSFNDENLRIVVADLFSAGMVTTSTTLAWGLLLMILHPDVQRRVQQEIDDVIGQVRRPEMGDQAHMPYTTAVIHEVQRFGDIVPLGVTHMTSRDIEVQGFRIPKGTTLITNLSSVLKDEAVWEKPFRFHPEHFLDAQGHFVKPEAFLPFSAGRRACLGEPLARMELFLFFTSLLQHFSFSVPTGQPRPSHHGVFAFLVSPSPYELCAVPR
T3 sequence (P33261 whole entry): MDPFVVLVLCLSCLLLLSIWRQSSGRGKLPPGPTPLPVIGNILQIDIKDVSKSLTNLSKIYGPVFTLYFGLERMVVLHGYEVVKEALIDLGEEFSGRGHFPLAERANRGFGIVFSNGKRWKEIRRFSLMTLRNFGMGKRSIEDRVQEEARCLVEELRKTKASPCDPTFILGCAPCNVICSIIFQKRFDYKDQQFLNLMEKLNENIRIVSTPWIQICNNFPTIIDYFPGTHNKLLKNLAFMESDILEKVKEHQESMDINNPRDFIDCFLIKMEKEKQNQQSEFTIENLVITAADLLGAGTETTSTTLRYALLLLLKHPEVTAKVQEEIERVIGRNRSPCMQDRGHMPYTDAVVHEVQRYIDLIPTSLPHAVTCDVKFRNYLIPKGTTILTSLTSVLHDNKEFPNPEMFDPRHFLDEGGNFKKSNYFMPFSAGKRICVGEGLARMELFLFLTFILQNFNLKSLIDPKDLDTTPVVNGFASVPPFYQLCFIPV

As for `CC1(C)C(=O)C(C#N)=C[C@]2(C)C3=CC(=O)[C@@H]4[C@@H]5C[C@@](C)(Cc6nnco6)CC[C@]5(C)CC[C@@]4(C)[C@]3(C)CC[C@@H]12` [Example 14, (4aR,6aS,6bR,8aR,11S,12aS,12bR,14bS)-11-((1,3,4-oxadiazol-2-yl)methyl)-4,4,6a,6b,8a,11,14b-heptamethyl-3,13-dioxo-3,4,4a,5,6,6a,6b,7,8,8a,9,10,11,12,12a,12b,13,14b-octadecahydropicene-2-carbonitrile], the intrinsic metabolic clearance (CLint scaled) at 1 μM in data set [1] came out at 1460 mL/min/kg; in data set [2] it was 87.9 mL/min/kg; in data set [3] it was 602 mL/min/kg; in data set [10], 228 mL/min/kg; in data set [11], 695 mL/min/kg. The half-life at 1 μM in data set [1] was 3.8 min; in [2], 14.2 min; in data set [3] it was 3.1 min; in data set [10], 8.8 min; in [11], 3.6 min. Further, the IC50 in data set [4] is 10.3 µM; in [5], 3 µM; in data set [6], 6.2 µM; in [7], more than 50 µM; in data set [8] it was 1 µM; in data set [9], less than 0.01 µM.

The compound `C/S(CC(=O)N[C@]12CCC(C)(C)C[C@H]1[C@H]1C(=O)C=C3[C@@]4(C)C=C(C#N)C(=O)C(C)(C)[C@@H]4CC[C@@]3(C)[C@]1(C)CC2)=N\C#N` (stereo partly drawn) [Example 5, N-((4aS,6aR,6bS,8aR,12aS,14aR,14bS)-11-cyano-2,2,6a,6b,9,9,12a-heptamethyl-10,14-dioxo-1,3,4,5,6,6a,6b,7,8,8a,9,10,12a,14,14a,14b-hexadecahydropicen-4a(2H)-yl)-2-((E)-N-cyano-S-methylsulfinimidoyl)acetamide] came in with an EC50 in [12] of 0.01 to 0.1 µM. The IC50 in data set [9] was less than 0.01 µM.

Consider `CC1(C)C(=O)C(C#N)=C[C@]2(C)C3=CC(=O)[C@@H]4[C@@H]5C[C@@](C)(c6nnco6)CC[C@]5(C)CC[C@@]4(C)[C@]3(C)CC[C@@H]12` [Example 9, (4aR,6aS,6bR,8aS,11S,12aS,12bR,14bS)-4,4,6a,6b,8a,11,14b-heptamethyl-11-(1,3,4-oxadiazol-2-yl)-3,13-dioxo-3,4,4a,5,6,6a,6b,7,8,8a,9,10,11,12,12a,12b,13,14b-octadecahydropicene-2-carbonitrile], for which the CLint scaled at 1 μM was 186 mL/min/kg in data set [1]; 94 mL/min/kg in data set [2]; 270 mL/min/kg in [3]; 104 mL/min/kg in data set [10]; 72.1 mL/min/kg in data set [11]. Also, the half-life at 1 μM in data set [1] came out at 29.5 min; in data set [2], 13.3 min; in data set [3], 6.9 min; in data set [10], 19.1 min; in [11], 34.6 min. Also, in [13] (IV (1 mg/kg)), the C0 was determined as 427 ng/mL. In addition, the clearance in data set [13] (IV (1 mg/kg)) worked out at 56 mL/min/kg. Besides, the half-life in data set [13] (IV (1 mg/kg)) is 90 min; in data set [13] (Oral (5 mg/kg)), 132 min. Moreover, the AUC(0-t) in data set [13] (IV (1 mg/kg)) turned out to be 301 ng·h/mL; in data set [13] (Oral (5 mg/kg)) it was 333 ng·h/mL. For the same compound, the highest level in data set [13] (Oral (5 mg/kg)) (Cmax) was 143 ng/mL. In data set [13], the bioavailability was 22.1%. The IC50 is 28.7 µM in data set [4]; 3.1 µM in data set [5]; 13.3 µM in data set [6]; more than 50 µM in [7]; 0.3 µM in data set [8]; less than 0.01 µM in data set [9].

With `Cc1noc([C@@]2(C)CC[C@]3(C)CC[C@]4(C)[C@H](C(=O)C=C5[C@@]6(C)C=C(C#N)C(=O)C(C)(C)[C@@H]6CC[C@]54C)[C@@H]3C2)n1` [Example 15, (4aR,6aS,6bR,8aS,11S,12aS,12bR,14bS)-4,4,6a,6b,8a,11,14b-heptamethyl-11-(3-methyl-1,2,4-oxadiazol-5-yl)-3,13-dioxo-3,4,4a,5,6,6a,6b,7,8,8a,9,10,11,12,12a,12b,13,14b-octadecahydropicene-2-carbonitrile], in data set [13] (IV (1 mg/kg)), the C0 worked out at 380 ng/mL. This compound also returned a clearance in data set [13] (IV (1 mg/kg)) of 47 mL/min/kg. Also, the half-life in data set [13] (IV (1 mg/kg)) is 168 min; in [13] (Oral (5 mg/kg)) it was 102 min. Besides, the AUC(0-t) in [13] (IV (1 mg/kg)) worked out at 329 ng·h/mL; in data set [13] (Oral (5 mg/kg)), 412 ng·h/mL. The compound further had a maximum concentration (Cmax) in [13] (Oral (5 mg/kg)) of 89 ng/mL. For the same compound, in data set [13], the bioavailability was found to be 25%. Further, the IC50 is 36.2 µM in data set [4]; 2.6 µM in [5]; 13.6 µM in [6]; more than 50 µM in data set [7]; 1.6 µM in data set [8]; less than 0.01 µM in data set [9].

As to `CC1(C)C(=O)C(C#N)=C[C@]2(C)C3=CC(=O)[C@@H]4[C@@H]5C[C@@](C)(c6nnc(C(=O)NC7CC7)o6)CC[C@]5(C)CC[C@@]4(C)[C@]3(C)CC[C@@H]12` [Example 19, 5-((2S,4aS,6aR,6bS,8aR,12aS,14aR,14bS)-11-cyano-2,4a,6a,6b,9,9,12a-heptamethyl-10,14-dioxo-1,2,3,4,4a,5,6,6a,6b,7,8,8a,9,10,12a,14,14a,14b-octadecahydropicen-2-yl)-N-cyclopropyl-1,3,4-oxadiazole-2-carboxamide], the C0 in [13] (IV (1 mg/kg)) was 703 ng/mL. The same compound had a clearance in data set [13] (IV (1 mg/kg)) of 32.5 mL/min/kg. The half-life in data set [13] (IV (1 mg/kg)) is 108 min; in [13] (Oral (5 mg/kg)) it was 270 min. Moreover, the values for the AUC(0-t) in [13] (IV (1 mg/kg)) and in [13] (Oral (5 mg/kg)) were 496 ng·h/mL and 364 ng·h/mL, respectively. This compound also registered a maximum concentration (Cmax) in [13] (Oral (5 mg/kg)) of 63 ng/mL. In [13], the bioavailability came to 14.7%. The 50% inhibitory concentration (IC50) in data set [4] is 8.4 µM; in data set [5], 1.2 µM; in [6] it was 5.8 µM; in data set [7] it was more than 50 µM; in [8], 2.1 µM; in data set [9] it was less than 0.01 µM.
